Data on 24 molecules can be found in patent US12358915B2, “METTL3 inhibitory compounds” (STORM THERAPEUTICS LTD., priority 2019, dated 2025).

One assay deals with MOLM-13 cells. Kind of assay: MOLM13 CTG - analysis of cell proliferation (Cell Titre Glo). It is filed as cell-based. To be noted: Homo sapiens, geometric mean, read-out: CTG MOLM13 cells IC50 GEOMEAN.
A further assay deals with T1, METTL3/14 (Homo sapiens, UniProt Q86U44).
T1 construct: The enzyme used was full-length his-tagged METTL3; His; made in house
T1 sequence (Q86U44 whole entry): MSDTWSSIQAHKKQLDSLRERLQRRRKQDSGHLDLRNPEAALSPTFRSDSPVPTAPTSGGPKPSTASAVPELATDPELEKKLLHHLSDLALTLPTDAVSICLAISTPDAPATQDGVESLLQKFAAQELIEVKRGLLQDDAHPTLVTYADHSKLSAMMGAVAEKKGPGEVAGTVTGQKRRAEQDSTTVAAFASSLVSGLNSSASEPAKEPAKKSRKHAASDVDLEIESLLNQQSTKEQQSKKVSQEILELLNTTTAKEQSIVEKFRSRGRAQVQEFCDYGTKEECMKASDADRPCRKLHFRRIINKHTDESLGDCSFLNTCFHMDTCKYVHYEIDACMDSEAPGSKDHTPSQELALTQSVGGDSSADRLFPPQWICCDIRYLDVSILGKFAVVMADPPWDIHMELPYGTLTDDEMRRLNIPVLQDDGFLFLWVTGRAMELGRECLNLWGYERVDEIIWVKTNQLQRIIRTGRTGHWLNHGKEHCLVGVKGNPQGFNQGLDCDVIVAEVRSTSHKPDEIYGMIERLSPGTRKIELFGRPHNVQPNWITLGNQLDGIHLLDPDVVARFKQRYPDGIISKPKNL
T1 sequence (Q9HCE5 whole entry partner): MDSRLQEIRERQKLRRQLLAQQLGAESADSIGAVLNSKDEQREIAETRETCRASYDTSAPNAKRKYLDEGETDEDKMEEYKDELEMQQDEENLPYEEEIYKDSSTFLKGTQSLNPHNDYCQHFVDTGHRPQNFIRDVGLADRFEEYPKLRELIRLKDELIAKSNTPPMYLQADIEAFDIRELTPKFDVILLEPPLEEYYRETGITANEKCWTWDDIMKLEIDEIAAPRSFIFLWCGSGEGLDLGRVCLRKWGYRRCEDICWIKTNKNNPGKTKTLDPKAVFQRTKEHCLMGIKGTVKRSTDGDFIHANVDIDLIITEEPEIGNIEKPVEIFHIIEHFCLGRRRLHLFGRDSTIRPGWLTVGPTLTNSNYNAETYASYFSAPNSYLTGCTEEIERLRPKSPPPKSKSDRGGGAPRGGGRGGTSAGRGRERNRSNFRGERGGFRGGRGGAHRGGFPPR
Kind of assay: METTL3/14 methyltransferase assay (METTL3_14 RFMS, RapidFire mass spectrometry).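 Also: recombinant His-tagged METTL3 with FLAG-tagged METTL14 from baculovirus, SAH product quantified by mass spectrometry against isotope-labelled internal standards, 60 min at room temperature, scaled between no-RNA and DMSO-only wells.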 It is filed as biochemical.

Setting [1] is: 5 nM METTL3/14, 0.2 μM RNA substrate, 0.5 μM SAM, lower limit of the assay IC50=5 nM, Compounds 63-265, read-out: METTL3_14 RFMS IC50.
The mark [2] stands for this setting: 5 nM METTL3/14, 0.2 μM RNA substrate, 0.5 μM SAM, lower limit of the assay IC50=5 nM, Compounds 1-62, read-out: METTL3_14 RFMS IC50.
[3] abbreviates: 5 nM METTL3/14, 0.2 μM RNA substrate, 0.5 μM SAM, lower limit of the assay IC50=5 nM, Compounds 266-351, read-out: METTL3_14 RFMS IC50.

pIC50: −log10 of the molar value. Structures can show the parent of a compound that is named as a salt. Where two headings read alike, the source gives them in different places.

Method for METTL3/14: The enzyme used was full-length his-tagged METTL3 co-expressed with full length FLAG-tagged METTL14 in a baculovirus expression system. […] After termination, plates were sealed, centrifuged and stored at 4° C. until analysis. […] Mass Spectrometry Analysis RNA methyltransferase activity was measured label free using the RapidFireTM mass spectrometry (RF/MS) platform. Stopped and stable assay plates were analyzed on the Agilent RF300 integrated autosampler/solid-phase extraction (SPE) system coupled to an ABSciex 4000 mass spectrometer for the generation of the product S-adenosyl homocysteine (SAH) and normalized to the ratio of signal of the two internal product standards, respectively. Solvent A was water containing 0.1% (v/v) TCA. Solvent B was acetonitrile/0.1% ammonium acetate (8:2, v/v). More specifically, plates were centrifuged at 4350 rpm for 10 min, samples were aspirated under vacuum for 600 ms, then loaded onto a C18 solid-phase extraction cartridge and washed for 3 s with solvent A at a flow rate of 1.5 mL/min. Retained product and internal standards were eluted with solvent B at a flow rate of 1 mL/min for 3 s and finally the cartridge was reequilibrated with solvent A for 500 ms.

On to `O=C(NCc1ccc2nc(CNC(=O)c3cc(=O)n4ccccc4n3)cn2c1)c1ccccc1` [Compound 237, 4-oxo-N-({6-[(phenylformamido)methyl]imidazo[1,2-a]pyridin-2-yl}methyl)-4H-pyrido[1,2-a]pyrimidine-2-carboxamide], for which the pIC50 is 4.89 in the assay with MOLM-13 cells and 6.13 on METTL3/14 (setting [1]). Regarding `O=C(NCc1cn2cc(CNCCC3CC3)ccc2n1)c1cc(=O)c2ccccc2o1` [Compound 218], the negative logarithm of the IC50 (pIC50) in the assay on MOLM-13 cells is 5.33; at METTL3/14 (setting [1]), 7.58.

As to `O=C(NCc1cn2cc(C3COCCN3)ccc2n1)c1cc(=O)n2ccccc2n1` (stereo not shown) [Example 263, N-{[6-(morpholin-3-yl)imidazo[1,2-a]pyridin-2-yl]methyl}-4-oxo-4H-pyrido[1,2-a]pyrimidine-2-carboxamide], the negative-log IC50 (pIC50) in the assay on MOLM-13 cells is 4.86; at METTL3/14 (setting [1]) it was 5.56. The corresponding values for `CN(Cc1ccc2nc(CNC(=O)c3cc(=O)n4ccccc4n3)cn2c1)CC1CCCCC1` [Compound 114, N-[(6-{[(cyclohexyl-methyl)(methyl)amino]methyl}imidazo [1,2-a]pyridin-2-yl)methyl]-4-oxo-4H-pyrido [1,2-a]pyrimidine-2-carboxamide] are 5.55 and 6.61. With `O=C(NCc1cn2cc(CNCC3CCCCC3)ccc2n1)c1cc(=O)n2ccccc2n1` [Compound 72, N-[(6-{[(cyclohexyl-methyl)amino]methyl}imidazo [1,2-a]pyridin-2-yl)methyl]-4-oxo-4H-pyrido [1,2-a]pyrimidine-2-carboxamide], the pIC50 in the assay on MOLM-13 cells was 5.06. With `O=C(NCc1cn2cc(NCCc3ccccc3)ccc2n1)c1cc(=O)n2ccccc2n1` [Compound 191, 4-oxo-N-({6-[(2-phenylethyl)amino]imidazo[1,2-a]pyridin-2-yl}methyl)-4H-pyrido[1,2-a]pyrimidine-2-carboxamide], at METTL3/14 (read-out: METTL3_14 RFMS IC50), the negative logarithm of the IC50 (pIC50) was 5.32.

`O=C(NCc1cn2cc(CN3CC(c4ccccn4)C3)ccc2n1)c1cc(=O)n2ccccc2n1` [Compound 134, 4-oxo-N-[(6-{[3-(pyridin-2-yl)azetidin-1-yl]methyl}imidazo[1,2-a]pyridin-2-yl)methyl]-4H-pyrido[1,2-a] pyrimidine-2-carboxamide]: the pIC50 at METTL3/14 (setting [1]) is 6.36.

Regarding `Cc1ccc2nc(CNC(=O)c3ccc4[nH]ncc4c3)cn2c1` [Compound 20, N-({6-methylimidazo[1,2-a]pyridin-2-yl}methyl)-1H-indazole-5-carboxamide], the pIC50 at METTL3/14 (setting [2]) was 5.08. On to `Cc1ccc2nc(Cn3cnc(-c4cccc5[nH]ncc45)c3)cn2c1` [Example 329, 2-[[4-(1H-indazol-4-yl)imidazol-1-yl]methyl]-6-methyl-imidazo[1,2-a]pyridine formate], for which the pIC50 on METTL3/14 (setting [3]) was 5.79. As to `CC(C)(C)OC(=O)N1CCCC(CNCc2ccc3nc(CNC(=O)c4cc(=O)n5ccccc5n4)cn3c2)C1` (stereo not shown) [Compound 100, tert-butyl 3-{[({2-[({4-oxo-4H-pyrido[1,2-a]pyrimidin-2-yl}formamido)methyl]imidazo [1,2-a]pyridin-6-yl}methyl)amino]methyl}piperidine-1-carboxylate], the pIC50 on METTL3/14 (setting [1]) is 5.86. For the molecule `O=C(NCc1cn2cc(CNCc3ccccc3)ccc2n1)c1cc(=O)n2ccccc2n1` [Compound 54, N-({6-[(benzylamino)methyl]imidazo[1,2-a]pyridin-2-yl}methyl)-4-oxo-4H-pyrido[1,2-a]pyrimidine-2-carboxamide], at METTL3/14 (primary enzyme screen, inhibition of RNA methyltransferase activity, lower limit of the assay is IC50=5 nM, read-out: IC50), the pIC50 is 7.80.

As to `Cc1ccc2nc(CNC(=O)c3cc(-c4ccn[nH]4)cc4[nH]ncc34)cn2c1` [Compound 8, N-({6-methylimidazo[1,2-a]pyridin-2-yl}methyl)-6-(1H-pyrazol-5-yl)-1H-indazole-4-carboxamide], at METTL3/14 (setting [2]), the pIC50 is 5.34. For `CC1CNC(c2ccc3nc(CNC(=O)c4cc(=O)n5ccccc5n4)cn3c2)CO1` (stereo not shown) [Example 331], the pIC50 on METTL3/14 (setting [3]) is 5.46. In the case of `O=C(NCc1cn2cc(CNC3CNC3)ccc2n1)c1cc(=O)n2ccccc2n1` [Compound 241, N-[(6-{[(azetidin-3-yl)amino]methyl}imidazo[1,2-a]pyridin-2-yl)methyl]-4-oxo-4H-pyrido[1,2-a]pyrimidine-2-carboxamide], the pIC50 on METTL3/14 (setting [1]) was 5.68. In the case of `CCC(O)CNCc1ccc2nc(CNC(=O)c3cc(=O)n4ccccc4n3)cn2c1` (stereo not shown) [Compound 289, N-[[6-[(2-hydroxputylamino)methyl]imidazo[1,2-a]pyridin-2-yl]methyl]-4-oxo-pyrido[1,2-a]pyrimidine-2-carboxamide], the negative logarithm of the IC50 (pIC50) at METTL3/14 (setting [3]) is 6.99. As to `O=C(NCc1cn2cc(CN3CCC(C(F)(F)F)CC3)ccc2n1)c1cc(=O)n2ccccc2n1` [Compound 138, 4-oxo-N-[(6-{[4-(trifluoromethyl)piperidin-1-yl]methyl}imidazo [1,2-a]pyridin-2-yl)methyl]-4H-pyrido[1,2-a] pyrimidine-2-carboxamide], the pIC50 at METTL3/14 (setting [1]) is 7.50. On the same count and under the same terms, in the case of `O=C(NCc1cn2cc(CNCc3cccc(C4CC4)c3)ccc2n1)c1cc(=O)n2ccccc2n1` [Compound 92, N-{[6-({[(3-cyclopropyl-phenyl)methyl]amino}methyl)imidazo[1,2-a]pyridin-2-yl]methyl}-4-oxo-4H-pyrido[1,2-a]pyrimidine-2-carboxamide] it was 6.95.

Consider `O=C(NCc1cn2cc(CNCC3CCCOC3)ccc2n1)c1cc(=O)n2ccccc2n1` (stereo not shown) [Compound 90, N-{[6-({[(oxan-3-yl)methyl]amino}methyl)imidazo [1,2-a]pyridin-2-yl]methyl}-4-oxo-4H-pyrido[1,2-a] pyrimidine-2-carboxamide], for which, on METTL3/14 (setting [1]), the pIC50 is 7.10. The same measure, in the same setting: in the case of `O=C(NCc1cn2cc(CNCc3cncs3)ccc2n1)c1cc(=O)n2ccccc2n1` [Compound 99, 4-oxo-N-{[6-({[(1,3-thiazol-5-yl)methyl]amino}methyl)imidazo[1,2-a]pyridin-2-yl]methyl}-4H-pyrido[1,2-a] pyrimidine-2-carboxamide] it was 6.50; in that of `CC1(NCc2ccc3nc(CNC(=O)c4cc(=O)n5ccccc5n4)cn3c2)CCCCC1` [Compound 146, N-[(6-{[(1-methylcyclohexyl)amino]methyl}imidazo[1,2-a]pyridin-2-yl)methyl]-4-oxo-4H-pyrido[1,2-a]pyrimidine-2-carboxamide], 7.60. In the case of `O=C(NCc1cn2cc(CO)ccc2n1)c1cccc2[nH]ncc12` [Compound 42], the pIC50 at METTL3/14 (setting [2]) was 5.20. For `O=C(NCc1cn2cc(CNCc3ccc(Cl)cc3)ccc2n1)c1cc(=O)c2ccccc2o1` [Compound 220, N-{[6-({[(4-chlorophenyl)methyl]amino}methyl)imidazo[1,2-a]pyridin-2-yl]methyl}-4-oxo-4H-chromene-2-carboxamide], at METTL3/14 (setting [1]), the pIC50 is 6.77. The same measure, in the same setting: in the case of `O=C(NCc1cn2cc(CNCCOC(F)(F)F)ccc2n1)c1cc(=O)n2ccccc2n1` [Compound 94, 4-oxo-N-{[6-({[2-(trifluoromethoxy)ethyl]amino}methyl)imidazo [1,2-a]pyridin-2-yl]methyl}-4H-pyrido[1,2-a] pyrimidine-2-carboxamide] it was 6.88; in that of `Cc1ccc2nc(CNC(=O)c3cc(=O)n4c(n3)CCCC4)cn2c1` [Compound 64, N-({6-methylimidazo [1,2-a]pyridin-2-yl}methyl)-4-oxo-4H,6H,7H,8H, 9H-pyrido[1,2-a]pyrimidine-2-carboxamide], 5.14.
